Data published in PMC6709486, “Safety, Tolerability, Pharmacokinetics, and Drug Interaction Potential of SPR741, an Intravenous Potentiator, after Single and Multiple Ascending Doses and When Combined with β-Lactam Antibiotics in Healthy Subjects” (Antimicrobial Agents and Chemotherapy, 2019).
Peptide text beside a SMILES is read from it.

Assays:
clinical [1] = settings: human, in vivo, iv
Description: The SAD/MAD study was a phase 1, double-blind, placebo-controlled, multicohort trial. Part 1 used a SAD design according to which subjects received a single i.v. dose of SPR741. Part 2 used a MAD design in which subjects received multiple daily i.v. doses of SPR741 over a period of 14 days. The objective was to assess the safety/tolerability and PK of single and multiple ascending doses of SPR741. In the SAD phase, healthy volunteers were screened within 28 days prior to dosing. Subjects were admitted to the clinical facility on day −1 for up to 3 days. A single dose of SPR741 (or placebo) was administered on day 1. Following completion of all safety assessments and sampling for PK analyses, subjects were discharged on day 2. A follow-up visit occurred 5 to 7 days after day 1 dosing. In the MAD phase, all subjects were admitted to the clinical facility on day −1. Dosing commenced on the morning of day 1. Three doses were administered daily at approximately 8 (±0.5)-h intervals for a total of 14 consecutive days. The last dose was administered on the morning of day 14. Blood and urine samples were collected for assessment of PK parameters. Subjects were discharged on day 16 following completion of all PK sample collection and safety assessments, and a follow-up visit occurred 5 to 7 days after the last dose. The MAD phase of the study began after safety and tolerability were confirmed in cohort 5, and the appropriate dose level was established. Two subjects received placebo, and six subjects received SPR741 doses of 50, 150, 400 or 600 mg q8h for 14 days. In the first cohort of the MAD phase (50 mg q8h), two subjects (sentinels) began dosing with SPR741 or placebo 72 h prior to dosing of the remaining subjects in this cohort. The remaining six subjects were dosed only after no safety concerns were identified by the Safety Monitoring Group at 72 h. […]

clinical [2] = settings: human, in vivo, iv, 400 mg; for AUC(0-inf): AUC0-inf
Description: The drug-drug interaction study was a phase 1, single-center, multiarm, open-label, randomized, three-period crossover study. The objective was to evaluate the DDI potential and the PK of SPR741 coadministered with each of three partner antibiotics as well as the DDI and PK effects of three partner antibiotics administered alone and with SPR741. The study comprised a screening phase (day −28 to day −2), three treatment arms (day 1 to day 8 for each arm), and an end-of-study follow-up (day 9). Each subject participated in screening, one treatment arm, and the end-of-study follow-up. The maximum duration of participation for each subject was approximately 37 days. Subjects remained in the clinical unit from the day before dosing (day −1) to 24 h after the third and last dose period (day 8).
The DDI study consisted of three treatment arms with three dosing periods in each arm (days 1, 4, and 7). In random sequence, subjects received a single dose of study treatments with a 2-day washout period between each assigned treatment. In treatment arm 1, subjects received 400 mg of SPR741 i.v. over 1 h, 400 mg of SPR741 i.v. over 1 h plus 1.0 g of ceftazidime i.v. over 1 h, and 1.0 g of ceftazidime i.v. over 1 h. In treatment arm 2, subjects received 400 mg of SPR741 i.v. over 1 h, 400 mg of SPR741 i.v. over 1 h plus 4.5 g of piperacillin-tazobactam i.v. over 1 h, and 4.5 g of piperacillin-tazobactam i.v. over 1 h.
For both studies, maximum plasma concentration (Cmax), area under the concentration-time curve from time zero to the last measurable time point (AUC0-t), area under the concentration-time curve from time zero to infinity (AUC0-inf), time to maximum concentration (Tmax), terminal elimination rate constant (kel), terminal half-life (t1/2), terminal clearance (CL), and volume of distribution (V) were determined. PK parameters were determined using WinNonlin Phoenix, version 6.4.
For the SAD phase, blood samples were obtained predose (within 10 min), at 30 min following the start of infusion, at the end of infusion, and at 75, 90, 105, 120, and 150 min and 3, 4, 5, 6, 8, 10, 12, and 24 h following the start of infusion. For the MAD phase, blood was obtained predose (within 10 min), at 30 min following the start of infusion, at the end of infusion, and at 90 and 150 min and 3, 4, 5, 6, and 8 h following the start of infusion (day 1, first dose; day 14, last dose). Five additional blood samples were obtained at 10, 12, 24, 36, and 48 h following the start of infusion of the last dose (morning of day 14). For the DDI study, blood samples for determining plasma concentrations of SPR741 and each partner antibiotic were obtained predose (within −10 min), at 30 min, and at 1 h, 1 h 15 min, 1 h 30 min, 1 h 45 min, 2, 4, 8, 12, and 24 h postdose for each dose period. Plasma samples for drug concentration measurements were analyzed using a validated high-pressure liquid chromatography tandem mass spectrometry (HPLC-MS/MS) method. In brief, samples were spiked with a stable isotope-labeled internal standard and then extracted by protein precipitation before injection onto the HPLC-MS/MS system. Unique transitions were monitored for all test articles and internal standards. Plasma concentrations below the limit of quantitation were reported as 0.
In the SAD/MAD study, geometric means were calculated for AUC and Cmax values. Analyses using linear models were performed to assess dose proportionality (both single dose and multiple dose), time dependence, accumulation, and attainment of steady state (multiple dose). Dose proportionality was assessed using linear models for the SAD and MAD cohorts separately. […] Point estimates and 90% confidence intervals (CIs), using the residual mean square error obtained from the ANOVA, were constructed for the comparisons between treatments. The point and CI estimates were back-transformed to give estimates of the ratios (percentages) of the geometric LSMs and corresponding 90% CIs.

[3] = geometric LSM, reference treatment

Q: For `CC(=O)N[C@H](C(=O)N[C@H](CO)C(=O)N[C@H]1CCNC(=O)[C@H]([C@@H](C)O)NC(=O)[C@H](CCN)NC(=O)[C@H](CCN)NC(=O)[C@H](CC(C)C)NC(=O)[C@@H](Cc2ccccc2)NC(=O)[C@H](CCN)NC1=O)[C@@H](C)O` [SPR741] (HELM PEPTIDE1{[ac].T.[dS].[Dab].[Dab].[dF].L.[Dab].[Dab].T}$PEPTIDE1,PEPTIDE1,4:R3-10:R2$$$V2.0), which Tmax (clinical [1]) is on record?
A: 1 h

Q: And the clearance (clinical [1]; CL)?
A: 89 mL/min

Q: And the half-life (clinical [1]; mean (apparent terminal elimination) half-life, day 1)?
A: 2.2 h

Q: And the “AUC0-inf, geometric LSM, reference treatment” value (clinical [2])?
A: 96,800 h·ng/ml

Q: What about the Tmax (clinical [2]) of the same compound?
A: 1 h

Q: What about the AUC(0-inf) (clinical [2]) of the same compound?
A: 90300 ng·h/mL

Q: What about the AUC(0-inf) (clinical [2]; [3]) of the same compound?
A: 79300 ng·h/mL

Q: What about the AUC0-t (clinical [2]; AUC0-t) of the same compound?
A: 89700 ng·h/mL

Q: And the AUC (clinical [2]; AUC0-τ, geometric LSM, reference treatment)?
A: 78700 ng·h/mL

Q: And the clearance (clinical [2]; CL)?
A: 75 mL/min

Q: And the Cmax (clinical [2])?
A: 28100 ng/mL

Q: What about the Cmax (clinical [2]; [3]) of the same compound?
A: 28800 ng/mL

Q: And the Vd (clinical [2]; V)?
A: 20.6 L

Q: What about the half-life (clinical [2]; t1/2) of the same compound?
A: 3.2 h
